# Measurements as given in patent publication US9216964B2, “Hedgehog pathway modulators” (Novartis AG, priority 2008, dated 2015).
# System: hedgehog signaling pathway
# Assay: Gli-Luc Reporter Assay for Hh Pathway Inhibition (TMHh-12 cells, pTA-8×Gli-Luc reporter)
# Type: cell-based, Mouse
# Conditions: Mus musculus, TMHh12, Ag1.5 1 nM; read-out: Hedgehog Inhibition IC50 (nM) (Ag1.5 1 nM)
# Protocol: Compounds of the present invention are assayed to evaluate their capacity to inhibit the hedgehog signaling pathway.
# Gli-Luc Reporter Assay for Hh Pathway Inhibition
# Mouse TM3 cells (obtained from American Type Culture Collection, ATCC, Manassas, Va.) are cultured in DMEM/F12 medium (Gibco/Invitrogen, Carlsbad, Calif.) supplemented with 5% heat inactivated horse serum and 2.5% FBS (Gibco/Invitrogen, Carlsbad, Calif.), 50 unit/mL penicillin and 50 μg/mL of streptomycin (Gibco/Invitrogen, Carlsbad, Calif.) at […] with 5% CO2 in air atmosphere. TM3 cells were transfected with pTA-8×Gli-Luc reporter plasmid. A stably transfected clone termed TMHh-12 was selected. […] To evaluate the IC50s of the antagonists, 8000 TMHh-12 cells were plated into each wells in 384-well plates with 50% DMEM/F12 medium supplemented with 2% FBS. After 12 hours, Hh pathway is activated by adding recombinant mouse Shh protein (expressed in E. coli, 8 μg/mL) or by adding Smo agonists. The testing compounds are added into plates with different concentrations. After 48 hours, the firefly luciferase luciferase activities are assayed with the Bright-Glo™ Luciferase Assay System (Promega, Madison, Wis.). The IC50 is measured when the effect of the compound reduces the luminescence signal by 50%. Toxicity of these compounds are evaluated in TM3 cells using CellTiter Glo assays or by TM3-Luc cell line (a TM3 cell stably transfected with a constitutive luciferase expression vector).
row,SMILES,IC50 [nM]
1,Cc1ccc(Nc2cccc3c2CCN(S(C)(=O)=O)C3)cc1Oc1ccccc1 [Compound 123],738
2,Cc1ccc(Nc2cccc3c2CCN(S(C)(=O)=O)C3)cc1C(=O)Nc1ccc(C(F)(F)F)cc1 [Compound 184],0.7
3,Cc1ccc(Nc2cccc3c2CCN(S(C)(=O)=O)C3)cc1-c1ccc(C(C)(C)C)cc1 [Compound 113],1030
4,Cc1ccc(Nc2cccc3c2CCN(S(C)(=O)=O)C3)cc1C(=O)Nc1ccccc1 [Compound 159],0.1
5,Clc1ccc(Nc2cccc3c2CCN(Cc2cccnc2)C3)cc1-c1ncc(-c2ccccc2)[nH]1 [Compound 51],11
6,CS(=O)(=O)N1CCc2c(cccc2Nc2ccc(Cl)c(-c3nc(-c4ccccc4)co3)c2)C1 [Compound 96],263
7,Clc1ccc(Nc2cccc3c2CCNC3)cc1-c1ncc(-c2ccccc2)[nH]1 [Compound 57],22.7

# Further lines, results first:
row,IC50 [nM],SMILES
1,90,Cc1ccc(Nc2cccc3c2CCN(S(C)(=O)=O)C3)cc1-c1ccc(C(F)(F)F)cc1 [Compound 136]
2,0.4,Cc1ccc(Nc2cccc3c2CCN(S(C)(=O)=O)C3)cc1C(=O)Nc1ccc(F)cc1 [Compound 185]
3,0.06,O=S1(=O)CCC(N2CCc3c(cccc3Nc3ccc(Cl)c(-c4ncc(-c5ccccc5)[nH]4)c3)C2)CC1 [Compound 3]
4,4.5,NC(=O)N1CCc2c(cccc2Nc2ccc(Cl)c(-c3ncc(-c4ccccc4)[nH]3)c2)C1 [Compound 43]
5,4180,CNC(=O)c1cccc(-c2cc(Nc3cccc4c3CCN(S(C)(=O)=O)C4)ccc2C)c1 [Compound 135]
6,15,Cc1cnc(-c2cc(Nc3cccc4c3CCN(S(C)(=O)=O)C4)ccc2C)nc1 [Compound 216]

# Same assay, conditions: Mus musculus, TMHh12, enzymatic and cellular assays for the inhibition of hedgehog signaling pathways; read-out: IC50 Ranges
row,SMILES,IC50 [nM]
1,Cc1ccc(Nc2cccc3c2CCN(S(C)(=O)=O)C3)cc1-c1ncc(-c2cncnc2)[nH]1 [Compound 59],1 to 10
2,COc1ccc(-c2cnc(-c3cc(Nc4cccc5c4CCN(S(C)(=O)=O)C5)ccc3C)[nH]2)cn1 [Compound 100],0.001 to 1
3,CCOc1ccc(-c2cc(Nc3cccc4c3CCN(C3CS(=O)(=O)C3)C4)ccc2C)nn1 [Compound 295],1 to 10
4,Cc1ccc(Nc2cccc3c2CCN(S(C)(=O)=O)C3)cc1-c1ccc(Cn2cccn2)cc1 [Compound 118],100 to 1000
5,Cc1ccc(Nc2cccc3c2CCN(S(C)(=O)=O)C3)cc1Oc1ccccc1 [Compound 123],100 to 1000
6,Cc1ccc(Nc2cccc3c2CCN(S(C)(=O)=O)C3)cc1-c1ccc(C#N)cc1 [Compound 102],1 to 10
7,Cc1ccc(Nc2nccc3c2CCN(S(C)(=O)=O)C3)cc1-c1ccc(F)cn1 [Compound 244],100 to 1000
8,Cc1ccc(Nc2cccc3c2CCN(S(C)(=O)=O)C3)cc1C(=O)Nc1ccc(C(F)(F)F)cc1 [Compound 184],0.001 to 1
9,Cc1ccc(Nc2cccc3c2CCN(S(C)(=O)=O)C3)cc1-c1ccc(C(C)(C)C)cc1 [Compound 113],1000 to 10000
10,CC1(C)OC[C@H](CN2CCC(N3CCc4c(cccc4Nc4ccc(Cl)c(-c5ncc(-c6ccccc6)[nH]5)c4)C3)CC2)O1 [Compound 28],1 to 10
11,COc1ccc(Nc2cccc3c2CCN(S(C)(=O)=O)C3)cc1-c1ccc(C#N)cc1 [Compound 149],100 to 1000
12,CS(=O)(=O)CCN1CCc2c(cccc2Nc2ccc(Cl)c(-c3ccc(F)cn3)n2)C1 [Compound 302],10 to 100
13,Cc1ccc(Nc2cccc3c2CCN(S(C)(=O)=O)C3)cc1C(=O)Nc1ccccc1 [Compound 159],0.001 to 1
14,Clc1ccc(Nc2ccc3c(c2)CN(C2CCOCC2)CC3)cc1-c1nc(-c2ccccc2)c[nH]1 [Compound 346],10 to 100
15,Clc1ccc(Nc2cccc3c2CCN(Cc2cccnc2)C3)cc1-c1ncc(-c2ccccc2)[nH]1 [Compound 51],10 to 100
16,CS(=O)(=O)N1CCc2c(cccc2Nc2cnc(Cl)c(-c3ccc(C#N)cc3)c2)C1 [Compound 175],10 to 100
17,Cc1ccc(-c2nc(Nc3cccc4c3CCN(C3CS(=O)(=O)C3)C4)ccc2C)nc1 [Compound 285],10 to 100
18,OCC1(N2CCc3c(cccc3Nc3ccc(Cl)c(-c4ncc(-c5ccccc5)[nH]4)c3)C2)CC1 [Compound 84],0.001 to 1
19,CS(=O)(=O)N1CCc2c(cccc2Nc2ccc(OC(F)(F)F)c(-c3ccc(C#N)cc3)c2)C1 [Compound 150],1000 to 10000
20,COc1cnc(-c2cc(Nc3cccc4c3CCN(S(C)(=O)=O)C4)ccc2C)cn1 [Compound 190],1 to 10
21,Cc1ccc(-c2nc(Nc3cccc4c3CCN(C3CS(=O)(=O)C3)C4)ccc2Cl)nc1 [Compound 317],0.001 to 1
22,CS(=O)(=O)N1CCc2c(cccc2Nc2ccc(Cl)c(-c3nc(-c4ccccc4)co3)c2)C1 [Compound 96],100 to 1000
23,Cc1ccc(Nc2cccc3c2CCN(S(C)(=O)=O)C3)cc1-c1ccc(C(C)C)cc1 [Compound 117],100 to 1000
24,OCC(O)CN1CCC(N2CCc3c(cccc3Nc3ccc(Cl)c(-c4ncc(-c5ccccc5)[nH]4)c3)C2)CC1 (stereo not shown) [Compound 40],0.001 to 1
25,Clc1ccc(Nc2cccc3c2CCNC3)cc1-c1ncc(-c2ccccc2)[nH]1 [Compound 57],10 to 100
26,Cc1ccc(Nc2cccc3c2CCN(S(C)(=O)=O)C3)cc1-c1ccc(C(=O)O)cc1 [Compound 144],1000 to 10000
27,Cc1ccc(Nc2cccc3c2CCN(S(C)(=O)=O)C3)cc1OCc1ccccc1 [Compound 130],1 to 10
28,O=C([C@H](O)CO)N1CCc2c(cccc2Nc2ccc(Cl)c(-c3nc(-c4ccccc4)c[nH]3)c2)C1 [Compound 38],0.001 to 1
29,Cc1ccc(Nc2cccc3c2CCN(S(C)(=O)=O)C3)cc1-c1ncc(-c2cnc(N(C)C)nc2)[nH]1 [Compound 107],1 to 10
30,CCOc1ccc(-c2cc(Nc3cccc4c3CCN(CCS(C)(=O)=O)C4)ccc2C)nn1 [Compound 294],1 to 10

# Other lines, results leading:
row,IC50 [nM],SMILES
1,10 to 100,Cc1ccc(Nc2cccc3c2CCN(S(C)(=O)=O)C3)cc1-c1ccc(C(F)(F)F)cc1 [Compound 136]
2,0.001 to 1,O=C(C(O)CO)N1CCc2c(cccc2Nc2ccc(Cl)c(-c3ncc(-c4ccccc4)[nH]3)c2)C1 (stereo not shown) [Compound 9]
3,10 to 100,Cc1ccc(Nc2cccc3c2CCN(S(C)(=O)=O)C3)cc1-c1cc2ccccc2[nH]1 [Compound 151]
4,0.001 to 1,Cc1ccc(Nc2cccc3c2CCN(S(=O)(=O)CCN(C)C)C3)cc1-c1ncccc1F [Compound 289]
5,0.001 to 1,Cc1ccc(Nc2cccc3c2CCN(C2CCS(=O)(=O)CC2)C3)cc1-c1ccc(F)cn1 [Compound 234]
6,100 to 1000,CS(=O)(=O)N1CCc2c(cccc2Nc2cc(-c3ccc(C#N)cc3)c(Cl)cn2)C1 [Compound 171]
7,10 to 100,CCOc1cnc(-c2nc(Nc3cccc4c3CCN(S(=O)(=O)C(C)C)C4)ccc2C)cn1 [Compound 336]
8,0.001 to 1,Cc1ccc(-c2cc(Nc3cccc4c3CCN(CC(C)(F)F)C4)ccc2C)nc1 [Compound 224]
9,1 to 10,Cc1ncc(Nc2cccc3c2CCN(S(C)(=O)=O)C3)cc1C(=O)Nc1ccccc1 [Compound 225]
10,1 to 10,Cc1ccc(Nc2cccc3c2CCN(CC(C)(C)F)C3)cc1-c1ccc(F)cn1 [Compound 182]
11,100 to 1000,CS(=O)(=O)N1CCc2c(cccc2Nc2ccc(C#N)c(-c3ccc(C#N)cc3)c2)C1 [Compound 155]
12,1 to 10,CC(C)N1CCc2c(cccc2Nc2ccc(Cl)c(-c3ncc(-c4ccccc4)[nH]3)c2)C1 [Compound 46]
13,0.001 to 1,Cc1ccc(Nc2cccc3c2CCN(S(C)(=O)=O)C3)cc1-c1ncc(-c2cccnc2)[nH]1 [Compound 60]
14,0.001 to 1,CS(=O)(=O)N1CCc2c(cccc2Nc2ccc(Cl)c(-c3ncc(-c4ccccc4)[nH]3)c2)C1 [Compound 4]
15,1 to 10,Cc1ccc(-c2cc(Nc3ncnc4c3CCN(S(C)(=O)=O)C4)ccc2C)nc1 [Compound 248]
16,0.001 to 1,CC(C)(CO)C(=O)N1CCc2c(cccc2Nc2ccc(Cl)c(-c3ncc(-c4ccccc4)[nH]3)c2)C1 [Compound 14]
17,0.001 to 1,Cc1ccc(Nc2cccc3c2CCN(S(C)(=O)=O)C3)cc1C(=O)Nc1ccc(F)cc1 [Compound 185]
18,0.001 to 1,Cc1ccc(Nc2cccc3c2CCN(S(C)(=O)=O)C3)cc1-c1ccccn1 [Compound 189]

row,IC50 [nM],SMILES
1,10 to 100,CCN1CCC(N2CCc3ccc(Nc4ccc(Cl)c(-c5nc(-c6ccccc6)c[nH]5)c4)cc3C2)CC1 [Compound 347]
2,0.001 to 1,CCC(CC)N1CCC(N2CCc3c(cccc3Nc3ccc(Cl)c(-c4ncc(-c5ccccc5)[nH]4)c3)C2)CC1 [Compound 31]
3,0.001 to 1,O=S1(=O)CCC(N2CCc3c(cccc3Nc3ccc(Cl)c(-c4ncc(-c5ccccc5)[nH]4)c3)C2)CC1 [Compound 3]
4,0.001 to 1,FC(F)(F)CN1CCc2c(cccc2Nc2ccc(Cl)c(-c3ncc(-c4ccccc4)[nH]3)c2)C1 [Compound 62]
5,1 to 10,CCS(=O)(=O)CCN1CCc2c(cccc2Nc2ccc(C)c(-c3ccc(OC)nn3)c2)C1 [Compound 282]
6,1 to 10,Cc1ccc(Nc2cccc3c2CCN(S(C)(=O)=O)C3)cc1-c1ncc(F)cn1 [Compound 220]
7,10 to 100,COc1cc2[nH]c(-c3cc(Nc4cccc5c4CCN(S(C)(=O)=O)C5)ccc3C)nc2cn1 [Compound 110]
8,1 to 10,NC(=O)N1CCc2c(cccc2Nc2ccc(Cl)c(-c3ncc(-c4ccccc4)[nH]3)c2)C1 [Compound 43]
9,10 to 100,CNc1ncc2nc(-c3cc(Nc4cccc5c4CCN(S(C)(=O)=O)C5)ccc3C)sc2n1 [Compound 94]
10,> 10000,CS(=O)(=O)N1CCc2c(cccc2Nc2ccc(C(=O)O)c(-c3ccc(C#N)cc3)c2)C1 [Compound 172]
11,0.001 to 1,O=C(CO)N1CCc2c(cccc2Nc2ccc(Cl)c(-c3ncc(-c4ccccc4)[nH]3)c2)C1 [Compound 72]
12,1000 to 10000,CNC(=O)c1cccc(-c2cc(Nc3cccc4c3CCN(S(C)(=O)=O)C4)ccc2C)c1 [Compound 135]
13,10 to 100,CCOc1ccc(-c2nc(Nc3cccc4c3CCN(C3CCS(=O)(=O)C3)C4)ccc2C)nn1 (stereo not shown) [Compound 334]
14,0.001 to 1,CS(=O)(=O)N1CCc2c(cccc2Nc2ccc(Cl)c(C(=O)Nc3ccccc3)n2)C1 [Compound 226]
15,10 to 100,Cc1cnc(-c2cc(Nc3cccc4c3CCN(S(C)(=O)=O)C4)ccc2C)nc1 [Compound 216]
16,1 to 10,CS(=O)(=O)N1CCc2c(cccc2Nc2ccc(Cl)c(-c3ccc(F)cn3)n2)C1 [Compound 303]
17,0.001 to 1,Cc1ccc(Nc2cccc3c2CCN(CC(F)(F)CO)C3)cc1-c1ccc(C#N)cn1 [Compound 211]

# Same assay, conditions: enzymatic and cellular assays for the inhibition of hedgehog signaling pathways; read-out: IC50 Ranges
row,IC50 [nM],SMILES
1,0.001 to 1,Cc1ccc(Nc2cccc3c2CCN(S(C)(=O)=O)C3)cc1-c1ccc(C(F)(F)F)cn1 [Compound 153]
